Data on 29 compounds can be found in patent US20240400555A1 (Initial Therapeutics, Inc., priority 2023, published 2024).

Bounds are passed on as bounds.

The assay has as its system HCT-116 Firefly-luciferase reporter cells. Briefly: Cellular c-MYC Reporter Assay. Type of assay: cell-based. Conditions: Homo sapiens; untitled table following Table 8a; HCT-116 Firefly-luciferase reporter cells, 24 h; read-out: pIC50 (converted). As to the method: HCT-116 Firefly-luciferase reporter cells (BPS Bioscience) were seeded in 96-well tissue-culture treated sterile plates (Greiner Bio-One) at 5e4 cells/mL in 100 μL complete growth media (McCoy's 5A+10% FBS, +1% Pen-Strep, +1% G418). Cells were incubated at 37° C. with 5% CO2 for 4-6 h then treated with 3× compound solution in 50 μL complete growth media for a final volume of 150 μL per well with 0.2% DMSO. After 24 h incubation at 37° C. with 5% CO2, plates were allowed to equilibrate to RT for 20 min then developed by addition of 100 μL ONE-Glo Luciferase detection reagent (Promega), incubated at RT for 10 min. Luminescence was recorded using a SpectraMax i3x plate reader (Molecular Devices) and analyzed using Prism GraphPad 9 software.
A general note: Reporter assays use an easily measured gene product as a stand-in for the process of interest.
Turning to `Cc1cccc2ccnc(N(C(=O)c3ccc(Nc4nccs4)cc3F)[C@@H]3CCCNC3)c12` [Example 275, (R)-2-fluoro-N-(8-methylisoquinolin-1-yl)-N-(piperidin-3-yl)-4-(thiazol-2-ylamino)benzamide], the IC50 is 3890 nM.
The figure for `Cc1cccc2ccnc(N(C(=O)c3ccc(N4CC(C)NC4=O)cc3F)[C@@H]3CCCNC3)c12` (stereo partly drawn) [Example 172, 2-fluoro-4-(4-methyl-2-oxoimidazolidin-1-yl)-N-(8-methylisoquinolin-1-yl)-N—((R)-piperidin-3-yl)benzamide] is 6030 nM; for `Cc1cccc2ccnc(N(C(=O)N3CCC(c4nc(C5CC5)no4)CC3)[C@@H]3CCCNC3)c12` [Example 262, (R)-4-(3-cyclopropyl-1,2,4-oxadiazol-5-yl)-N-(8-methylisoquinolin-1-yl)-N-(piperidin-3-yl)piperidine-1-carboxamide] it is 575 nM; for `Cc1cccc2ccnc(N(C(=O)c3c(F)cc(-n4nnc5cccnc54)cc3F)[C@@H]3CCCNC3)c12` [Example 218, (R)-4-(3H-[1,2,3]triazolo[4,5-b]pyridin-3-yl)-2,6-difluoro-N-(8-methylisoquinolin-1-yl)-N-(piperidin-3-yl)benzamide] it is 43.7 nM.
As to `NC(=O)/C=C/c1ccc2ccnc(N(C(=O)c3ccc(-n4nnc5cccnc54)cc3F)[C@@H]3CCCNC3)c2c1` [Example 149, (R,E)-4-(3H-[1,2,3]triazolo[4,5-b]pyridin-3-yl)-N-(7-(3-amino-3-oxoprop-1-en-1-yl)isoquinolin-1-yl)-2-fluoro-N-(piperidin-3-yl)benzamide], the IC50 is 3800 nM.
Consider `Cn1ncc2ccnc(N(C(=O)c3ccc(Nc4ncccn4)cc3F)[C@@H]3CCCNC3)c21` [Example 119, (R)-2-fluoro-N-(1-methyl-1H-pyrazolo[3,4-c]pyridin-7-yl)-N-(piperidin-3-yl)-4-(pyrimidin-2-ylamino)benzamide], for which the IC50 was 1410 nM.
`C=C(C)c1cccnc1N(C(=O)c1ccc(-n2nnc3cccnc32)cc1F)[C@@H]1CCCNC1` [Example 108, (R)-4-(3H-[1,2,3]triazolo[4,5-b]pyridin-3-yl)-2-fluoro-N-(piperidin-3-yl)-N-(3-(prop-1-en-2-yl)pyridin-2-yl)benzamide]: the IC50 is 129 nM.
As for `Cc1cccc2ccnc(N(C(=O)c3ccc(-c4cncc(C#N)n4)cc3F)[C@@H]3CCCNC3)c12` [Example 198, (R)-2-fluoro-N-(8-methylisoquinolin-1-yl)-4-(6-cyanopyrazin-2-yl)-N-(piperidin-3-yl)benzamide], the IC50 was 617 nM.
Consider `O=C(c1ccc(-n2nnc3cccnc32)cc1F)N(c1nccc2cc(CO)ccc12)[C@@H]1CCCNC1` [Example 146, (R)-4-(3H-[1,2,3]triazolo[4,5-b]pyridin-3-yl)-2-fluoro-N-(6-(hydroxymethyl)isoquinolin-1-yl)-N-(piperidin-3-yl)benzamide], for which the IC50 is 562 nM.
Consider `Cc1cccc2ccnc(N(C(=O)N3CCC(n4c(=O)ccc5ccccc54)CC3)[C@@H]3CCCNC3)c12` [Example 268, (R)—N-(8-methylisoquinolin-1-yl)-4-(2-oxoquinolin-1(2H)-yl)-N-(piperidin-3-yl)piperidine-1-carboxamide], for which the IC50 is 5890 nM.
As to `O=C(c1ccc(Nc2ncccn2)cc1F)N(c1nccc2cccc(Cl)c12)[C@@H]1CCCNC1` [Example 272, (R)—N-(8-chloroisoquinolin-1-yl)-2-fluoro-N-(piperidin-3-yl)-4-(pyrimidin-2-ylamino)benzamide], the IC50 was 437 nM.
Turning to `Cc1cccc2ccnc(N(C(=O)N3CCC(c4cc(C(F)F)no4)CC3)[C@@H]3CCCNC3)c12` [Example 250, (R)-4-(3-(difluoromethyl)isoxazol-5-yl)-N-(8-methylisoquinolin-1-yl)-N-(piperidin-3-yl)piperidine-1-carboxamide], the IC50 is 813 nM.
For the compound `Cn1cnc(-c2cccnc2N(C(=O)c2ccc(-n3nnc4cccnc43)cc2F)[C@@H]2CCCNC2)c1` [Example 112, (R)-4-(3H-[1,2,3]triazolo[4,5-b]pyridin-3-yl)-2-fluoro-N-(3-(1-methyl-1H-imidazol-4-yl)pyridin-2-yl)-N-(piperidin-3-yl)benzamide], the IC50 was 380 nM.
`Cc1cccc2ccnc(N(C(=O)c3ccc(-c4cccnc4)cc3)[C@@H]3CCCNC3)c12` [Example 233, (R)—N-(8-methylisoquinolin-1-yl)-N-(piperidin-3-yl)-4-(pyridin-3-yl)benzamide]: the IC50 was 708 nM.
For `Cc1cccc2ccnc(N(C(=O)c3ccc(-n4nnc5cccnc54)cc3)[C@H]3CNCC[C@@H]3C)c12` [Example 224, 4-(3H-[1,2,3]triazolo[4,5-b]pyridin-3-yl)-N-(8-methylisoquinolin-1-yl)-N-((3R,4S)-4-methylpiperidin-3-yl)benzamide], the IC50 was more than 20000 nM.
As for `O=C(c1ccc(-n2nnc3cccnc32)cc1F)N(c1nccc2cc(Br)ccc12)[C@@H]1CCCNC1` [Example 143, (R)-4-(3H-[1,2,3]triazolo[4,5-b]pyridin-3-yl)-N-(6-bromoisoquinolin-1-yl)-2-fluoro-N-(piperidin-3-yl)benzamide], the IC50 is 724 nM.
With `Cc1cccc2ccnc(N(C(=O)N3CCC(Oc4ccccc4)CC3)[C@@H]3CCCNC3)c12` [Example 189, (R)—N-(8-methylisoquinolin-1-yl)-4-phenoxy-N-(piperidin-3-yl)-1-carboxamide], the IC50 is 5620 nM.
With `COC(=O)c1ccc2ccnc(N(C(=O)c3ccc(-n4nnc5cccnc54)cc3F)[C@@H]3CCCNC3)c2c1` [Example 129, methyl (R)-1-(4-(3H-[1,2,3]triazolo[4,5-b]pyridin-3-yl)-2-fluoro-N-(piperidin-3-yl)benzamido)isoquinoline-7-carboxylate], the IC50 is 339 nM.
For the compound `O=C(c1ccc(-n2nnc3cccnc32)cc1F)N(c1nccc2ncccc12)[C@@H]1CCCNC1` [Example 249, (R)-4-(3H-[1,2,3]triazolo[4,5-b]pyridin-3-yl)-2-fluoro-N-(1,6-naphthyridin-5-yl)-N-(piperidin-3-yl)benzamide], the IC50 was 1410 nM.
In the case of `O=C(O)/C=C/c1ccc2ccnc(N(C(=O)c3ccc(-n4nnc5cccnc54)cc3F)[C@@H]3CCCNC3)c2c1` [Example 295, (R,E)-3-(1-(4-(3H-[1,2,3]triazolo[4,5-b]pyridin-3-yl)-2-fluoro-N-(piperidin-3-yl)benzamido)isoquinolin-7-yl)acrylic acid], the IC50 is more than 20000 nM.
Consider `Cc1cccc2ccnc(N(C(=O)c3ccc(-n4nnc5cccnc54)cc3)[C@H]3CCCCNC3)c12` [Example 227, (S)-4-(3H-[1,2,3]triazolo[4,5-b]pyridin-3-yl)-N-(azepan-3-yl)-N-(8-methylisoquinolin-1-yl)benzamide], for which the IC50 is more than 20000 nM.
Turning to `NC(=O)c1ccc2ccnc(N(C(=O)c3ccc(-n4nnc5cccnc54)cc3F)[C@@H]3CCCNC3)c2c1` [Example 155, (R)-1-(4-(3H-[1,2,3]triazolo[4,5-b]pyridin-3-yl)-2-fluoro-N-(piperidin-3-yl)benzamido)isoquinoline-7-carboxamide], the IC50 was 5750 nM.
On to `Cc1cccc2ccnc(N(C(=O)c3cccc(Cn4nc5cccnc5n4)c3F)[C@@H]3CCCNC3)c12` [Example 273, (R)-3-((2H-[1,2,3]triazolo[4,5-b]pyridin-2-yl)methyl)-2-fluoro-N-(8-methylisoquinolin-1-yl)-N-(piperidin-3-yl)benzamide], for which the IC50 was 1700 nM.
As for `Cc1cn(C)c2c(N(C(=O)c3ccc(-n4nnc5cccnc54)cc3F)[C@@H]3CCCNC3)nccc12` [Example 255, (R)-4-(3H-[1,2,3]triazolo[4,5-b]pyridin-3-yl)-N-(1,3-dimethyl-1H-pyrrolo[2,3-c]pyridin-7-yl)-2-fluoro-N-(piperidin-3-yl)benzamide], the IC50 was 100 nM.
The same measure for `O=C(c1ccc(-n2nnc3cccnc32)cc1F)N(c1nccc2sc(-c3cn[nH]c3)cc12)[C@@H]1CCCNC1` [Example 160, (R)—N-(2-(1H-pyrazol-4-yl)thieno[3,2-c]pyridin-4-yl)-4-(3H-[1,2,3]triazolo[4,5-b]pyridin-3-yl)-2-fluoro-N-(piperidin-3-yl)benzamide]: 447 nM.
As to `C#Cc1cccnc1N(C(=O)c1ccc(-n2nnc3cccnc32)cc1F)[C@@H]1CCCNC1` [Example 107, (R)-4-(3H-[1,2,3]triazolo[4,5-b]pyridin-3-yl)-N-(3-ethynylpyridin-2-yl)-2-fluoro-N-(piperidin-3-yl)benzamide], the IC50 is 977 nM.
The figure for `Cc1cccc2ccnc(N(C(=O)c3ccc(-n4nnc(C(C)C)n4)cc3F)[C@@H]3CCCNC3)c12` [Example 285, (R)-2-fluoro-4-(5-isopropyl-2H-tetrazol-2-yl)-N-(8-methylisoquinolin-1-yl)-N-(piperidin-3-yl) benzamide] is 295 nM; for `CCOC(=O)/C=C/c1ccc2ccnc(N(C(=O)c3ccc(-n4nnc5cccnc54)cc3F)[C@@H]3CCCNC3)c2c1` [Example 130, ethyl (R,E)-3-(1-(4-(3H-[1,2,3]triazolo[4,5-b]pyridin-3-yl)-2-fluoro-N-(piperidin-3-yl)benzamido)isoquinolin-7-yl)acrylate] it is 2290 nM.
Turning to `Cc1cccc2ccnc(N(C(=O)c3ccc(Nc4ncccn4)cc3F)[C@@H]3CCCNC3)c12` [Example 210, (R)-2-fluoro-N-(8-methylisoquinolin-1-yl)-N-(piperidin-3-yl)-4-(pyrimidin-2-ylamino)benzamide], the IC50 was 275 nM.
